The source made the active and inactive calls.
Columns and labels:
Aminopeptidase N = biological target: T1, Aminopeptidase N (Plasmodium falciparum FcB1/Columbia, UniProt O96935); assay: P. falciparum M1AAP inhibitors, biochemical, fluorogenic H-Leu-NHMec substrate, 1536-well (AID 1445); set-up: species or system Plasmodium falciparum 3D7, 3D7
T1 sequence (O96935 whole entry): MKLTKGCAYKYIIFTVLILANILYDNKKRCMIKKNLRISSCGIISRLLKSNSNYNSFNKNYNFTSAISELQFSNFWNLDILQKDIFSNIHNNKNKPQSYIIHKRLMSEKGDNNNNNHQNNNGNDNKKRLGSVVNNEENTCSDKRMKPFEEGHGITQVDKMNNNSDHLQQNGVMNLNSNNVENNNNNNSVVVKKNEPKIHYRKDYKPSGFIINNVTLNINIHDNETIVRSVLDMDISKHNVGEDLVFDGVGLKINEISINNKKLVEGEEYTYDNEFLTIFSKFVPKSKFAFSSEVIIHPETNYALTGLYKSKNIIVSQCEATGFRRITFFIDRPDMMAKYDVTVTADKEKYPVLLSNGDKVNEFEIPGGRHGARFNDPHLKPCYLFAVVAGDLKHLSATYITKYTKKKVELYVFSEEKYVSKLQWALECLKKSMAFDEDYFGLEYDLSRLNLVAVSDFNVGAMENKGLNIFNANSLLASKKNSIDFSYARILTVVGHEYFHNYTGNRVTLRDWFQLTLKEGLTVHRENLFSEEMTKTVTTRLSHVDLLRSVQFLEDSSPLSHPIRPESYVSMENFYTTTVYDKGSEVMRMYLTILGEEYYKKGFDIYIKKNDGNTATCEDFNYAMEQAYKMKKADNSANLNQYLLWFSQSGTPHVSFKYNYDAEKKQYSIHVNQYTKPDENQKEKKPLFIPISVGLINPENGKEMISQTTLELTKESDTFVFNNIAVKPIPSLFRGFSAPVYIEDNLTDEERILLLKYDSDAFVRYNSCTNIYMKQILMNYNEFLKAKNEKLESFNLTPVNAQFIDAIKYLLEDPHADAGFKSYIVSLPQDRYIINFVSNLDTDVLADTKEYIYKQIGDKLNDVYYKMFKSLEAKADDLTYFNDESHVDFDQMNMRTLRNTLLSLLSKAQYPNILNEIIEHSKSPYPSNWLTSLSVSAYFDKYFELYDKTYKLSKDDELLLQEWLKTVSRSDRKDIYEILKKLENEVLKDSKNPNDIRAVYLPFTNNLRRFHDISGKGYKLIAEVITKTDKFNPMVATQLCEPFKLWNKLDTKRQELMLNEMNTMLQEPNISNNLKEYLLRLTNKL

[1] = M. tuberculosis H37Rv growth inhibitors, H37Rv strain (AID 1626); assay type: functional
[2] = biological target: G-protein coupled receptor 183 (Homo sapiens, UniProt P32249); assay: SAR confirmation of small molecule antagonists of the EBI2 receptor via a luminescent beta-arrestin assa.; assay type: functional
[3] = HepG2 cell cytotoxicity, dose response, cytotoxicity control, cherry-picked samples (AID 1159577); assay type: functional, cell-based
[4] = P. falciparum Dd2 growth inhibitors, dose response, SYBR Green, cherry-picked samples (AID 1159567); assay type: functional, cell-based
[5] = P. falciparum 3D7-ScDHODH growth inhibitors, dose response, SYBR Green, dry powder samples (AID 1159570); assay type: functional, cell-based;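 also: parasite growth measured after 72 hours of compound exposure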
[6] = P. falciparum ATP4 D1247Y mutant growth inhibitors, dose response, NITD609-resistant line, SYBR Green, dry powder (AID 1159571); assay type: functional, cell-based;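 also: parasites synchronized at ring stage by sorbitol before testing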
[7] = P. falciparum Dd2 growth inhibitors, dose response, SYBR Green, dry powder samples (AID 1159566); assay type: functional, cell-based;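 also: potency for growth inhibition with lower SYBR green DNA signal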
[8] = biological target: T2, Low molecular weight phosphotyrosine protein phosphatase (Homo sapiens, UniProt P24666); assay: LMPTP phosphatase inhibitors, colorimetric pNPP readout, dose response, orthogonal assay, biochemical, absorbance, pNPP substrate, LMPTP-A isoform, set 2 (AID 743308); assay type: functional
T2 sequence (P24666 whole entry): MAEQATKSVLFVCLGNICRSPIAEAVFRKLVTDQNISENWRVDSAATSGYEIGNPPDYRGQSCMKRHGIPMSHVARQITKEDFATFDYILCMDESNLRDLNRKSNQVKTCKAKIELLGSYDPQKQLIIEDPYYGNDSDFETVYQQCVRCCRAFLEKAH

[9] = biological target: T2, Low molecular weight phosphotyrosine protein phosphatase; assay: LMPTP phosphatase inhibitors, dose response, biochemical, OMFP substrate, fluorescence intensity, set 2 (AID 743307); assay type: functional

G-protein coupled receptor 183, sequence (P32249 whole entry): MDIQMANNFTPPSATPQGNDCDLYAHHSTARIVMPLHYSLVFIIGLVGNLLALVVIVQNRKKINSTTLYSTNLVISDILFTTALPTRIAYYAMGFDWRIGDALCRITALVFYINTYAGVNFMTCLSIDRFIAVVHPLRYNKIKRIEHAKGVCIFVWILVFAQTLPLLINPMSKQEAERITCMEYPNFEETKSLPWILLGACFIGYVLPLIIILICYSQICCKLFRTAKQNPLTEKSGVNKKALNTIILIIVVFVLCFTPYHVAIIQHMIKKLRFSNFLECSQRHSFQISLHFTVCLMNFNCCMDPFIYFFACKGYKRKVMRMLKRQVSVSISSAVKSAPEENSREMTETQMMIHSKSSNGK

## N#C/C(=C(/O)CSc1nnc(Cc2cccs2)n1C1CCCCC1)c1nc2ccccc2[nH]1
Aminopeptidase N
  IC50: 78.9 µM (active)
[1]
  IC50: > 100 µM (active)

## O=C(/C=C/c1ccc(Br)cc1F)N1CCN(S(=O)(=O)c2ccc(Br)cc2)CC1
[2]
  IC50: 0.0655 µM (active)

## CCc1nc(N2[C@H](C#N)[C@H](c3ccccc3-c3ccccc3F)[C@@H]2CO)sc1C
[3]
  AC50: > 39 µM (inactive)
[4]
  AC50: 8.71 µM (active)

## Fc1cccc(-c2ccc([C@@H]3[C@@H]4CN(Cc5cccnc5)C[C@H]3N4)cc2)c1
[3]
  AC50: 13 µM (active)
[4]
  AC50: 0.348 µM (active)

## C[C@@H]1CN([C@@H](C)CO)C(=O)Cc2cc(NC(=O)Nc3ccc4c(c3)OCO4)ccc2O[C@@H]1CN(C)CC1CC1
[5]
  AC50: 4.73 µM (active)
[4]
  AC50: 2.37 µM (active)
[6]
  AC50: 2.76 µM (active)
[7]
  AC50: 2.02 µM (active)

## COc1cc2nc(-c3ccccc3)cc(NCCCN3CCCCC3)c2cc1OC
[8]
  IC50: > 80 µM (inactive)
[9]
  IC50: > 80 µM (inactive)

## O=C(/C=C/c1ccc(Br)cc1)N1CCN(Cc2ccc(F)cc2C(F)(F)F)CC1
[2]
  IC50: 0.00818 µM (active)

## c1ccc(-c2cc(OCCCN3CCCCC3)c3ccccc3n2)cc1
[8]
  IC50: 19 µM (active)
[9]
  IC50: 11.5 µM (active)
